# Results taken from publication PMC7396128 (Nature medicine, 2019).
# Tests used:
# [1] = test system: MT-4 cells; details: read-out: mean 50% cytotoxicity concentration, CC50
# [2] = test system: HIV-1IIIB; format: cell-based; details: MT-4 cells
# [3] = test system: HIV-1; details: 500 nM, 12 hpi, MOI 70
# [4] = test system: HIV-1YU2; experiment: antiviral efficacy in HIV-1YU2-infected humanized NOG mice; format: in vivo
# [5] = test system: HIV-1IIIB; experiment: ultrastructural analysis of HIV-1 virions by electron microscopy; format: cell-based; details: 500 nM
compound,measurement,setting,value
Cc1[nH]c2ccccc2c1CC(=O)N[C@@H](Cc1ccccc1)C(=O)N(C)c1ccccc1 [PF74],CC50,[1],32.2 ± 9.3 µM
same,selectivity index (CC50/EC50 ratio),[2],26
same,fold weaker antiviral potency than GS-CA1,[2]; HIV-1IIIB,"> 5,000 fold"
same,EC50,"[2]; read-out: mean EC50, HIV-1IIIB, n = 43",1.24 µM
"C[C@@H]1CCO[C@H]2Cn3cc(C(=O)NCc4ccc(F)cc4F)c(=O)c(O)c3C(=O)N12 [DTG, dolutegravir]",effect on capsid and vDNA fluorescent signals,[3],did not alter either fluorescent signal
"Cc1cc(/C=C/C#N)cc(C)c1Nc1ccnc(Nc2ccc(C#N)cc2)n1 [RPV, rilpivirine]",treated animals with rapid emergence of drug resistance,[4]; 160 mg/kg every 2 weeks,80%
same,animals returning to baseline viremia by week 10,[4]; 160 mg/kg s.c. daily for 7 days then every two weeks,4/5
same,capsid levels,[3],100 % of control
same,vDNA,[3],14 % of control
"COC(=O)N[C@H](C(=O)N[C@@H](Cc1ccccc1)[C@@H](O)CN(Cc1ccc(-c2ccccn2)cc1)NC(=O)[C@@H](NC(=O)OC)C(C)(C)C)C(C)(C)C [ATV, atazanavir]",capsid morphology in released virions,[5],predominantly contained immature Gag/Gag-Pol lattices
